Active and inactive are the calls of the source. No cut-off for these calls is given here.
Experiments:
Plasmodium falciparum [1] = assay: Antiplasmodial activity against chloroquine-sensitive erythrocytic stage Plasmodium falciparum 3D7 assessed as inhibition of parasite growth incubated for 3 days by HRP2-ELISA; assay type: functional, organism-based; settings: 3D7, 72 h
Plasmodium falciparum [2] = assay: Antiplasmodial activity against chloroquine-resistant erythrocytic stage Plasmodium falciparum Dd2 assessed as inhibition of parasite growth incubated for 3 days by HRP2-ELISA; assay type: functional, organism-based; settings: Dd2, 72 h
Plasmodium berghei = assay: Antiplasmodial activity against hepatic stage Plasmodium berghei infected in Huh-7 cells assessed as cell viability incubated for 1 hrs by bioluminescence assay; assay type: functional, organism-based; settings: for IC50: Huh-7, 1 h
HepG2 = assay: Cytotoxicity against human HepG2 cells assessed as cell growth inhibition incubated for 1 day by neutral red assay; assay type: functional, cell-based; settings: HepG2, 24 h
[3] = Selectivity index, ratio of IC50 for human HepG2 cells to IC50 for […] erythrocytic stage Plasmodium falciparum 3D7; assay type: toxicity; settings: read-out: Selectivity Index

Compound | IC50 (Plasmodium falciparum [1]) | IC50 (Plasmodium falciparum [2]) | Activity (Plasmodium berghei) | IC50 (HepG2) | selectivity ratio [3] | IC50 (Plasmodium berghei)
Cc1nc(CNC(=O)/C=C/c2ccc(C(F)(F)F)cc2)cc2c1[nH]c1ccccc12 | 2.3 µM | 5.97 µM | Active | 33.3 µM | 14.5 | 
COc1ccc(/C=C/C(=O)NCCOc2ccc3[nH]c4c(C)nccc4c3c2)cc1 | 1.17 µM | 2.86 µM | Active | > 250 µM | > 214 | 
Cc1nccc2c1[nH]c1ccc(OCCNC(=O)/C=C/c3ccc(Cl)cc3)cc12 | 0.36 µM | 0.92 µM | Active | > 250 µM | > 694 | 
O=C(/C=C/c1ccc(Cl)cc1)OCc1cn(Cc2nccc3c2[nH]c2ccccc23)nn1 | > 55.6 µM | > 55.6 µM |  |  |  | 
Cc1nccc2c1[nH]c1ccc(OCCNC(=O)/C=C/c3ccc(C(F)(F)F)cc3)cc12 | 0.12 µM | 0.35 µM | Active | 3.59 µM | 29.9 | 
COc1ccc2c(c1)[nH]c1c(C)nccc12 [HARMINE] |  | > 27.7 µM |  | > 250 µM | 30 | 
Cc1nccc2c1[nH]c1ccc(OCCNC(=O)/C=C/c3cccc(F)c3)cc12 | 1.11 µM | 1.3 µM | Active | 37.6 µM | 33.9 | 
O=C(/C=C/c1cccc(F)c1)OCc1cn(Cc2nccc3c2[nH]c2ccccc23)nn1 | > 17.3 µM | > 20.1 µM |  |  |  | 
O=C(/C=C/c1cccc(C(F)(F)F)c1)NCc1nccc2c1[nH]c1ccccc12 | > 27.8 µM | > 27.8 µM |  |  |  | 
COc1ccc2c3ccnc(C)c3n(CCNC(=O)/C=C/c3cccc(C(F)(F)F)c3)c2c1 | 0.06 µM | 0.33 µM |  | 66.3 µM | 1110 | 1.9 µM
Cc1nc(CNC(=O)/C=C/c2cccc(Br)c2)cc2c1[nH]c1ccccc12 | 3.23 µM | 1.48 µM | Active | 9.64 µM | 2.98 | 
Cc1nccc2c1[nH]c1ccc(OCc3cn(C/C=C/c4ccccc4)nn3)cc12 | 0.61 µM | 2.12 µM | Active | 10.1 µM | 16.6 | 
Cc1nccc2c1[nH]c1ccc(OCc3cn(C/C=C/c4cccc(F)c4)nn3)cc12 | 0.55 µM | 2.28 µM | Active | 10.5 µM | 19.1 | 
O=C(/C=C/c1cccc(F)c1)NCc1nccc2c1[nH]c1ccccc12 | > 27.8 µM | > 27.8 µM |  |  |  | 
Cc1nc(Cn2cc(COC(=O)/C=C/c3ccccc3)nn2)cc2c1[nH]c1ccccc12 | > 20 µM | > 27.8 µM | Active |  |  | 
O=C(/C=C/c1ccccc1)NCc1nccc2c1[nH]c1ccccc12 | > 28 µM | > 55.6 µM |  |  |  | 
Cc1nc(CNC(=O)/C=C/c2cccc(F)c2)cc2c1[nH]c1ccccc12 | 5.74 µM | 12.7 µM | Active | 15.8 µM | 2.76 | 
COc1ccc(/C=C/C(=O)OCc2cn(Cc3nccc4c3[nH]c3ccccc34)nn2)cc1 | > 55.6 µM | 39.2 µM |  |  |  | 
O=C(/C=C/c1cccc(Br)c1)OCc1cn(Cc2nccc3c2[nH]c2ccccc23)nn1 | > 13.2 µM | > 19.1 µM |  |  |  | 
O=C(/C=C/c1cccc(Br)c1)NCc1nccc2c1[nH]c1ccccc12 | > 27.8 µM | > 27.8 µM |  |  |  | 
COc1ccc2c3ccnc(C)c3n(CCNC(=O)/C=C/c3ccc(C(F)(F)F)cc3)c2c1 | 0.04 µM | 0.17 µM |  | 5.84 µM | 146 | 8.4 µM
Cc1nccc2c1[nH]c1ccc(OCCNC(=O)/C=C/c3ccc(F)cc3)cc12 | 0.95 µM | 1.67 µM | Active | > 250 µM | > 263 | 
O=C(/C=C/c1ccccc1)OCc1cn(Cc2nccc3c2[nH]c2ccccc23)nn1 | > 27.8 µM | > 20.2 µM |  |  |  | 

Compound | IC50 (Plasmodium falciparum [1]) | IC50 (Plasmodium falciparum [2]) | Activity (Plasmodium berghei) | IC50 (HepG2) | selectivity ratio [3] | IC50 (Plasmodium berghei)
Cc1nccc2c1[nH]c1ccc(OCc3cn(C/C=C/c4ccc(Cl)cc4)nn3)cc12 | 0.57 µM | 0.95 µM | Active | 3.95 µM | 6.93 | 
Cc1nc(Cn2cc(COC(=O)/C=C/c3cccc(Br)c3)nn2)cc2c1[nH]c1ccccc12 | 16.4 µM | 11.1 µM | Active | 110 µM | 6.71 | 
Cc1nc(CO)cc2c3ccccc3n(Cc3cn(C/C=C/c4cccc(Br)c4)nn3)c12 | 6.28 µM | 18.4 µM | Active | > 125 µM | > 19.9 | 
Cc1nc(CNC(=O)/C=C/c2cccc(C(F)(F)F)c2)cc2c1[nH]c1ccccc12 | 2.01 µM | 7.4 µM | Active | 9.37 µM | 4.66 | 
O=C(/C=C/c1ccc(F)cc1)NCc1nccc2c1[nH]c1ccccc12 | > 13.9 µM | > 13.9 µM |  |  |  | 
Cc1nccc2c1[nH]c1ccc(OCCNC(=O)/C=C/c3ccccc3)cc12 | 1.55 µM | 2.47 µM | Active | 12 µM | 7.75 | 
COc1ccc(/C=C/C(=O)NCc2cc3c([nH]c4ccccc43)c(C)n2)cc1 | 6.5 µM | 10.7 µM | Active | 10.4 µM | 1.6 | 
Cc1nccc2c1[nH]c1ccc(OCc3cn(C/C=C/c4cccc(Br)c4)nn3)cc12 | 0.26 µM | 0.73 µM | Active | 6.13 µM | 23.6 | 
COc1ccc(/C=C/Cn2cc(COc3ccc4[nH]c5c(C)nccc5c4c3)nn2)cc1 | 0.6 µM | 1.81 µM | Active | 88 µM | 147 | 
Cc1nc(CO)cc2c3ccccc3n(Cc3cn(C/C=C/c4ccccc4)nn3)c12 | > 27.8 µM | > 19.8 µM | Active |  |  | 
COc1ccc(/C=C/Cn2cc(Cn3c4ccccc4c4cc(CO)nc(C)c43)nn2)cc1 | 18.2 µM | > 16.9 µM | Active |  |  | 
Cc1nccc2c1[nH]c1ccc(OCCNC(=O)/C=C/c3cccc(Br)c3)cc12 | 0.19 µM | 0.63 µM | Active | 7.57 µM | 39.8 | 
Cc1nc(Cn2cc(COC(=O)/C=C/c3cccc(F)c3)nn2)cc2c1[nH]c1ccccc12 | > 27.8 µM | > 27.8 µM | Active |  |  | 
COc1ccc(/C=C/C(=O)OCc2cn(Cc3cc4c([nH]c5ccccc54)c(C)n3)nn2)cc1 | > 27.8 µM | > 27.8 µM | Active |  |  | 
Cc1nc(CNC(=O)/C=C/c2ccc(F)cc2)cc2c1[nH]c1ccccc12 | 4.13 µM | 13.3 µM | Active | 12.5 µM | 2.99 | 
Cc1nc(Cn2cc(COC(=O)/C=C/c3ccc(Cl)cc3)nn2)cc2c1[nH]c1ccccc12 | 21.4 µM | > 27.8 µM | Active | 70.5 µM | 3.29 | 
COc1ccc(/C=C/C(=O)NCc2nccc3c2[nH]c2ccccc23)cc1 | > 27.8 µM | > 27.8 µM |  |  |  | 
Cc1nccc2c1[nH]c1ccc(OCCNC(=O)/C=C/c3cccc(C(F)(F)F)c3)cc12 | 0.12 µM | 0.32 µM | Active | 6.14 µM | 51.2 | 
Cc1nc(CO)cc2c3ccccc3n(Cc3cn(C/C=C/c4ccc(Cl)cc4)nn3)c12 | > 19.9 µM | > 23.6 µM | Active |  |  | 
O=C(/C=C/c1ccc(C(F)(F)F)cc1)NCc1nccc2c1[nH]c1ccccc12 | > 55.6 µM | > 55.6 µM |  |  |  | 
O=C(/C=C/c1ccc(Cl)cc1)NCc1nccc2c1[nH]c1ccccc12 | > 27.8 µM | > 27.8 µM |  |  |  | 
Cc1nc(CNC(=O)/C=C/c2ccc(Cl)cc2)cc2c1[nH]c1ccccc12 | 2.92 µM | 8.38 µM | Active | 11.3 µM | 3.88 | 
Cc1nc(CNC(=O)/C=C/c2ccccc2)cc2c1[nH]c1ccccc12 | 5.78 µM | 10.2 µM | Active | 7.05 µM | 1.29 | 

— ChEMBL document CHEMBL4828716, “Further investigation of harmicines as novel antiplasmodial agents: Synthesis, structure-activity relationship and insight into the mechanism of action” (Eur J Med Chem, 2021)
